# Assay results as given in ChEMBL document CHEMBL3638545 (2015).
# Biological target: Sodium channel protein type 5 subunit alpha (Homo sapiens, UniProt Q14524)
# Assay: Electrophysiological Assay: Patch voltage clamp electrophysiology allows for the direct measurement and quantification of block of voltage-gated sodium channels (NaV's), and allows the determination of the time- and voltage-dependence of block which has been interpreted as differential binding to the resting, open, and inactivated states of the sodium channel (Hille, B., Journal of General …
# Format: cell-based, HEK293
# Chain of Sodium channel protein type 5 subunit alpha (Q14524 whole entry): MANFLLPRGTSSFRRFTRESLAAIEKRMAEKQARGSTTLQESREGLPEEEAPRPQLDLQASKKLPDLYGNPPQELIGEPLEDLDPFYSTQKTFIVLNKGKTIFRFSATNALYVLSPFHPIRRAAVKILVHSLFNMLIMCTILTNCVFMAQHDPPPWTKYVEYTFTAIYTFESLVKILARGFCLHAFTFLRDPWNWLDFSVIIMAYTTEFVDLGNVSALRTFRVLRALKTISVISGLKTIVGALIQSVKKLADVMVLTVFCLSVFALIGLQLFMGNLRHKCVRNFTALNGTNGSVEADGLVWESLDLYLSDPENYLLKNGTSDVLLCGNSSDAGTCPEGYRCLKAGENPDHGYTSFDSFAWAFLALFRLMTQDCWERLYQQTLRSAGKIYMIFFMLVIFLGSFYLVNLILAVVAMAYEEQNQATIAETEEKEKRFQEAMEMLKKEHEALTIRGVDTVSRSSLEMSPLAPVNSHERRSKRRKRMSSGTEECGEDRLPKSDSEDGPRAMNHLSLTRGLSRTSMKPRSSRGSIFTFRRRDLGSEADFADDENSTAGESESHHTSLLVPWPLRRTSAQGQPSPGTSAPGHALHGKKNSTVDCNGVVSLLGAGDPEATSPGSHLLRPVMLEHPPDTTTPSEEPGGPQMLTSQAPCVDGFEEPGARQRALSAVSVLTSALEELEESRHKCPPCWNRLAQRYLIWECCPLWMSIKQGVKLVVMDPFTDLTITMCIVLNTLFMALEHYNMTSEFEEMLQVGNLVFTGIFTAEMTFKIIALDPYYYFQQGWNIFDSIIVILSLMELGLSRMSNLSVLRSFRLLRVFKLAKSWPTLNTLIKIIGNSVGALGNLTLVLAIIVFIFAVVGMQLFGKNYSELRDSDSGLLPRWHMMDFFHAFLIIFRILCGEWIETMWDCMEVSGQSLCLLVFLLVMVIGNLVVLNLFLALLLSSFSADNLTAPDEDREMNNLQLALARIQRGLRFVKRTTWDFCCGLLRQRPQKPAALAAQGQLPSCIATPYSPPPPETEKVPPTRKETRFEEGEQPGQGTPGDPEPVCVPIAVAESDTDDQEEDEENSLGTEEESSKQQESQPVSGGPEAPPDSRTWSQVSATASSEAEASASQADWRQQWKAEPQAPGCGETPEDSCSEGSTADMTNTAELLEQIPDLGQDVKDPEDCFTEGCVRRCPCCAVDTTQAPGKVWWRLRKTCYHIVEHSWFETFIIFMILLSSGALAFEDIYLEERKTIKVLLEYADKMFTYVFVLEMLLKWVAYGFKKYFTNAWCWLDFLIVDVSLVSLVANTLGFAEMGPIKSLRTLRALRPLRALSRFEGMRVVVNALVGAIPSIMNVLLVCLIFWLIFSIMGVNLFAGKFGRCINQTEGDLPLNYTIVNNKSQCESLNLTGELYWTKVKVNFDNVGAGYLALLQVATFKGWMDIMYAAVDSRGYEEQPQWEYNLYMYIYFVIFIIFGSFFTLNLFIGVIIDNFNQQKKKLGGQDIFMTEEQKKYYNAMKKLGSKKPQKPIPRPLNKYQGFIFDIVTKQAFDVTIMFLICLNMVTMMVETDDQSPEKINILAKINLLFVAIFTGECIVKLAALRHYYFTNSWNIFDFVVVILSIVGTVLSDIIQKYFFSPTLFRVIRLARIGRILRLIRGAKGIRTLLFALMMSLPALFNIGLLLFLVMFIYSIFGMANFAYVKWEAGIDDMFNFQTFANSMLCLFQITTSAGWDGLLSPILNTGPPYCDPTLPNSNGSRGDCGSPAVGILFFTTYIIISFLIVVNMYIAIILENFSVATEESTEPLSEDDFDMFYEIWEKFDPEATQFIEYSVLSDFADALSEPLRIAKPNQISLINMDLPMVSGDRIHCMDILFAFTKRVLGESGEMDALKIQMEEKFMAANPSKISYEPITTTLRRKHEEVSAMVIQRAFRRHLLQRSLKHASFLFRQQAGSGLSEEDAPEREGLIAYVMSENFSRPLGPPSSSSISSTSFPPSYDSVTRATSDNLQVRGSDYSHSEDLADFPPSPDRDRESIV
row,SMILES,IC50 [nM]
1,CN(C)S(=O)(=O)NC(=O)c1cc(Cl)c(OCC23CC4CC(CC(C4)C2)C3)cc1F,772
2,COCCS(=O)(=O)NC(=O)c1cc(C2CC2)c(OCC23CC4CC(CC(C4)C2)C3)cc1F,101
3,CC1(C)CCc2cc(OCc3cc(F)c(C(=O)NS(=O)(=O)N4CCC4)cc3Cl)ccc2O1,653
4,CS(=O)(=O)NC(=O)c1cc(C2CC2)c(OCC23CC4CC(C2)C(F)(F)C(C4)C3)cc1F,714
5,O=C(NS(=O)(=O)N1CCOCC1)c1cc(C2CC2)c(OCC23CC4CC(CC(C4)C2)C3)cc1F,14
6,O=C(NS(=O)(=O)N1CCC1)c1cc(C2CC2)c(OCC23CC4(F)CC(F)(CC(F)(C4)C2)C3)cc1F,950
7,O=C(NS(=O)(=O)N1CCC1)c1cc(C2CC2)c(OCC2(C(F)(F)F)CCCCC2)cc1F,350
